This is an account of results in patent publication US20110172193A1, “PRO-DRUGS OF (E)-7-(3-(2-AMINO-1-FLUOROETHYLIDENE)PIPERIDIN-1-YL)-1-CYCLOPROPYL-6-FLUORO-8-METHOXY-4-OXO-1,4-DIHYDROQUINOLINE-3-CARBOXYLIC ACID” (priority 2010, published 2011).

Each structure is given as a SMILES string. Read-outs that look alike come from different tables or passages of the source.

Data set [1] in a line: In vitro bioconversion of pro-drug to parent drug in mouse blood, plasma, liver and kidney extract. The data set is classed as in vitro ADME. The following applies: for Peak Area of pro-drug: 37° C. incubator; for Conversion to the parent compound (summary in words): mouse whole blood, liver/kidney extracts, plasma. Here is the method:
Compound concentrations were normalized to parent drug content by multiplying by a ratio of the relative molecular weights. Time 0 (minute) samples were prepared by immediately diluting with an equal volume of acetonitrile, vortexing, and transferring the samples to ice. […] Representative compounds of the present invention and the parent compound were analyzed by reversed-phase HPLC using an Agilent 1100 system. […] The solvent flow rate was 1 mL/min, and the column temperature was 40° C. Compound and parent peak identification was by diode array detection, monitored at 300 nm Conversion of the compounds (prodrugs) to parent drug was estimated by peak areas (A300 nm, mAU) of the respective agents. Mouse whole blood and plasma were collected from Swiss Webster mice, and stored at 4° C. until use (within 48 hours). […] For these experiments, fresh whole mouse livers or kidneys were homogenized for approximately 30 seconds (Omni-Tip™ disposable homogenizer tip) in 1 mL sterile saline and immediately stored on ice. Crude extracts (non-centrifuged) were incubated with the test compound or parent (20 μg/mL) and processed as described above.

Data set [2] in a line: Clarity of test compound solutions at […] (aqueous solubility). The following applies: for solubility at 24 h: 50 mM citrate buffer, pH 4, aqueous buffer, thermodynamic from solid; for Aqueous Solubility pH~7 (visual clarity): […] active-form equivalents, pH 7 (50 mM phosphate), after 24 hours. Here is the method: A 50-mg/mL solution of a compound of formula (I) or a compound of formula (II) in H2O was titrated with 0.1 M NaOH until pH reached 5.7-6.1. Any solid that precipitated was filtered. The remaining solutions or phase-separated oil/H2O mixtures were freeze-dried to produce zwitterions as fluffy solids.
The aqueous solubility of Compounds #14, #15 and #16 were determined by a modified procedure. In these cases, the samples were targeted at a pH of 4 and 7 and were measured exclusively using 100 mM phosphate buffers. For both pH's, measured samples were initially prepared at ˜3 mg/ml and ˜10 mg/ml concentrations and for samples that dissolved rapidly, additional compound was added to the solution until saturated solutions were obtained.

Data set [3] in a line: In vitro bioconversion of pro-drug to parent drug in human blood and plasma. Type of data set: in vitro ADME. The following applies: for Peak Area of pro-drug: 37° C.; for Conversion to the parent compound (summary in words): human whole blood and plasma. Here is the method: Compounds #1, #4, #6, #15, and #16, as well as the parent drug [(E)-7-(3-(2-amino-1-fluoroethylidene)piperidin-1-yl)-1-cyclopropyl-6-fluoro-8-methoxy-4-oxo-1,4-dihydroquinoline-3-carboxylic acid] (the compound of formula (M)) were dissolved to 1 mg/mL, and diluted to 20 ng/mL in fresh, chilled (4° C.) human or mouse whole blood or plasma, or kidney and liver extract (prepared from the respective fresh mouse organs as described below). Compound concentrations were normalized to parent drug content by multiplying by a ratio of the relative molecular weights. Time 0 (minute) samples were prepared by immediately diluting with an equal volume of acetonitrile, vortexing, and transferring the samples to ice. For additional time points, samples were placed in an incubator (Tables 4 and 5), or in a heating block (Tables 6-12) at 37° C. for the indicated time, then immediately vortexed with an equal volume of acetonitrile and placed on ice. Samples were centrifuged and further diluted with an equal volume of water to a final concentration of 25% acetonitrile prior to analysis by HPLC; diluted samples were retained in the cooled (4° C.) HPLC sample injection chamber pending injection.
Representative compounds of the present invention and the parent compound were analyzed by reversed-phase HPLC using an Agilent 1100 system. Samples were injected onto a Zorbax SB-C18 column (3.5 μM, 4.6×150 mm) with a guard cartridge, and developed on a gradient of 15% aqueous acetonitrile in 0.1% trifluoroacetic acid to 85% aqueous acetonitrile in 0.1% trifluoroacetic acid over 10 minutes. The solvent flow rate was 1 mL/min, and the column temperature was 40° C. Compound and parent peak identification was by diode array detection, monitored at 300 nm Conversion of the compounds (prodrugs) to parent drug was estimated by peak areas (A300 nm, mAU) of the respective agents.
For studies with Compounds #1, #4 and #6 (with results as listed in Tables 8, 9 and 10), fresh human whole blood and plasma samples were purchased from BioChemed Services, shipped in Styrofoam coolers maintained with frozen cold packs, and used within 48 hours of receipt. For studies with Compounds #15 and #16 (with results as listed in Tables 11 and 12), blood was drawn from volunteers and whole blood samples and isolated plasma prepared and immediately placed on ice. Whole blood and plasma samples were maintained at 4° C. and used within approximately 30 hours.

Data set [4] concerns Staphylococcus aureus (OC8525), a methicillin-resistant strain (MRSA). Description: In vivo efficacy in a mouse systemic infection model. The settings on record: for ED50: Staphylococcus aureus, 72 h, Swiss Webster mice infected i.p. with MRSA, 3 day survival, normalized to parent content. Here is the method: Female Swiss Webster mice weighing between 20-25 g were infected intraperitoneally with approximately 5×10^5 colony forming units (CFU) Staphylococcus aureus (OC8525), a methicillin-resistant strain (MRSA), in 7% mucin. One hour later, the animals were given the test compound intravenously or orally in a dose volume of 0.2 mL. Each animal test group consisted of eight animals. The test compounds were prepared immediately before dosing in 5% dextrose in water (D5W) and diluted further in D5W for i.v. and p.o. administration. The mice were observed over a three day period and ED50 values were calculated from the resulting % survival curves (see Table 13, below). The measured ED50 values were normalized to the content of (E)-7-(3-(2-amino-1-fluoroethylidene)piperidin-1-yl)-1-cyclopropyl-6-fluoro-8-methoxy-4-oxo-1,4-dihydroquinoline-3-carboxylic acid. For some compounds, in vivo efficacy was determined by testing a group of eight mice at a single dose level only. In these cases, the data presented in Table 13, below are reported as percent survival at the designated dose.

Data set [5] in a line: Aqueous solubility, modified procedure (saturated solutions, RP-HPLC). The following applies: thermodynamic from solid, 100 mM phosphate buffer. The data set is classed as physicochemical.
Where [6] appears, read: homogenized mouse kidney, 0 min.
The mark [7] stands for this setting: homogenized mouse kidney, 5 min.
Setting [8] is: homogenized mouse kidney, 30 min.
Setting [9] is: homogenized mouse liver, 30 min.
Where [10] appears, read: fresh human blood (purchased), 0.0 min.
The mark [11] stands for this setting: fresh human plasma (purchased), 0.0 min.
Setting [12] is: fresh human plasma (purchased), 5.0 min.
The mark [13] stands for this setting: fresh human plasma (purchased), 15.0 min.
[14] abbreviates: fresh human plasma (purchased), 30.0 min.
Where [15] appears, read: oral dose 1 h later, read-out: ED50 p.o.
Where [16] appears, read: iv, i.v. dose 1 h later, read-out: ED50 i.v.

As usually defined, the solubility is how much of the substance goes into solution per volume. As a reminder, the ED50 is the dose that gives a 50% effect, or the effect in half of the subjects. For the compound `COc1c(N2CCC/C(=C(\F)CNC(=O)[C@@H](N)C(C)C)C2)c(F)cc2c(=O)c(C(=O)O)cn(C3CC3)c12.Cl` [Compound 1, 7-{3-[2-((2S)-2-Amino-3-methyl-butyrylamino)-1-fluoro-ethylidene]-piperidin-1-yl}-1-cyclopropyl-6-fluoro-8-methoxy-4-oxo-1,4-dihydro-quinoline-3-carboxylic acid hydrochloride], the “Peak Area of pro-drug” value came to 298 mAU in data set [1] (fresh mouse plasma, 0 min); 296 mAU in data set [1] (fresh mouse plasma, 5 min); 286 mAU in data set [1] (fresh mouse plasma, 30 min); 222 mAU in data set [1] (setting [6]); 152 mAU in data set [1] (setting [7]); 41 mAU in data set [1] (setting [8]). Besides, the “Peak Area of pro-drug” value in data set [1] (homogenized mouse liver, 0 min) is 235 mAU; in data set [1] (homogenized mouse liver, 5 min), 171 mAU; in data set [1] (setting [9]), 51 mAU; in data set [3] (setting [10]), 365 mAU; in data set [3] (fresh human blood (purchased), 3.0 min), 339 mAU; in data set [3] (fresh human blood (purchased), 5.5 min), 339 mAU. For the same compound, the “Peak Area of pro-drug” value is on record as 328 mAU in data set [3] (fresh human blood (purchased), 8.0 min); 289 mAU in data set [3] (fresh human blood (purchased), 10.5 min); 256 mAU in data set [3] (fresh human blood (purchased), 15.5 min); 401 mAU in data set [3] (setting [11]); 386 mAU in data set [3] (setting [12]); 369 mAU in data set [3] (setting [13]). Moreover, the “Peak Area of pro-drug” value in data set [3] (setting [14]) turned out to be 371 mAU. Moreover, the “Conversion to the parent compound (summary in words)” value (“Conversion to the parent compound” below) in data set [1] and in data set [3] was “converted to the parent compound” each time. The solubility at 24 h in data set [2] is under 3300 µg/mL. In addition, the “Aqueous Solubility pH~7 (visual clarity)” value in data set [2] is given as “No”. The ED50 stood at 9.9 mg/kg in data set [4] (setting [15]) and 1.3 mg/kg in data set [4] (setting [16]).
For `COc1c(N2CCC/C(=C(\F)CNC(=O)[C@H](C)N)C2)c(F)cc2c(=O)c(C(=O)O)cn(C3CC3)c12.Cl` [Compound 4, 7-{3-[2-((2S)-2-Amino-propionylamino)-1-fluoro-ethylidene]-piperidin-1-yl}-1-cyclopropyl-6-fluoro-8-methoxy-4-oxo-1,4-dihydro-quinoline-3-carboxylic acid hydrochloride], the “Conversion to the parent compound” value in data set [1] and in data set [3] was “converted to the parent compound” each time. The solubility at 24 h in data set [2] was over 3300 µg/mL. Further, the “Aqueous Solubility pH~7 (visual clarity)” value in data set [2] is given as “No”. In addition, the “Peak Area of pro-drug” value came to 401 mAU in data set [3] (setting [10]); 205 mAU in data set [3] (fresh human blood (purchased), 4.0 min); 123 mAU in data set [3] (fresh human blood (purchased), 6.5 min); 79 mAU in data set [3] (fresh human blood (purchased), 9.0 min); 84 mAU in data set [3] (fresh human blood (purchased), 11.5 min); 68 mAU in data set [3] (fresh human blood (purchased), 16.5 min). Also, the “Peak Area of pro-drug” value in data set [3] (setting [11]) worked out at 442 mAU; in data set [3] (setting [12]), 383 mAU; in data set [3] (setting [13]) it was 339 mAU; in data set [3] (setting [14]) it was 268 mAU. The ED50 in data set [4] (setting [15]) came to 19.8 mg/kg; in data set [4] (setting [16]), 0.7 mg/kg.
Turning to `COc1c(N2CCC/C(=C(\F)CNC(=O)CN)C2)c(F)cc2c(=O)c(C(=O)O)cn(C3CC3)c12.Cl` [Compound 6, 7-{3-[2-(2-Amino-acetylamino)-1-fluoro-ethylidene]-piperidin-1-yl}-1-cyclopropyl-6-fluoro-8-methoxy-4-oxo-1,4-dihydro-quinoline-3-carboxylic acid hydrochloride], the “Peak Area of pro-drug” value in data set [1] (fresh mouse plasma, 0 min) came out at 363 mAU; in data set [1] (fresh mouse plasma, 5 min), 329 mAU; in data set [1] (fresh mouse plasma, 30 min), 281 mAU; in data set [1] (setting [6]), 219 mAU; in data set [1] (setting [7]) it was 72 mAU; in data set [1] (setting [8]), 11 mAU. Besides, the “Peak Area of pro-drug” value in data set [1] (homogenized mouse liver, 0 min) was 254 mAU; in data set [1] (homogenized mouse liver, 5 min), 143 mAU; in data set [1] (setting [9]) it was 34 mAU; in data set [3] (setting [10]), 369 mAU; in data set [3] (fresh human blood (purchased), 3.5 min) it was 290 mAU; in data set [3] (fresh human blood (purchased), 6.0 min), 188 mAU. Besides, the “Peak Area of pro-drug” value in data set [3] (fresh human blood (purchased), 8.5 min) is recorded as 159 mAU; in data set [3] (fresh human blood (purchased), 11.0 min), 134 mAU; in data set [3] (fresh human blood (purchased), 16.0 min) it was 95 mAU; in data set [3] (setting [11]) it was 393 mAU; in data set [3] (setting [12]), 386 mAU; in data set [3] (setting [13]) it was 399 mAU. In addition, the “Peak Area of pro-drug” value in data set [3] (setting [14]) came out at 393 mAU. In addition, the “Conversion to the parent compound” value in data set [1] and in data set [3] was “converted to the parent compound” throughout. This compound also showed a solubility at 24 h in data set [2] of under 3300 µg/mL. Besides, the “Aqueous Solubility pH~7 (visual clarity)” value in data set [2] is “No”. Further, the median effective dose (ED50) was over 17.6 mg/kg in data set [4] (setting [15]) and 0.6 mg/kg in data set [4] (setting [16]).
On to `COc1c(N2CCC/C(=C(\F)CNC(=O)[C@@H](N)CN(C)C)C2)c(F)cc2c(=O)c(C(=O)O)cn(C3CC3)c12.Cl.Cl` [Compound 14, 7-{3-[2-((2S)-2-Amino-3-dimethylamino-propionylamino)-1-fluoro-ethylidene]-piperidin-1-yl}-1-cyclopropyl-6-fluoro-8-methoxy-4-oxo-1,4-dihydro-quinoline-3-carboxylic acid dihydrochloride], for which the solubility at 18 h was 6890 µg/mL in data set [5] (pH 4, aqueous buffer, read-out: Aqueous Solubility pH~4) and over 3000 µg/mL in data set [5] (pH 7, aqueous buffer, read-out: Aqueous Solubility pH~7). In addition, the “% Survival” value in data set [4] (i.v., at 2.0 mg/kg/day, mice) is recorded as 12.5% at 2.0 mg/kg/day.
